This is an account of results in the PolyMetriX glass transition set.

Take `*/C(=C(/*)c1ccc(CCCC)cc1)c1ccccc1` (repeat unit): the glass transition temperature was found to be 200.00 °C. To `*C(=O)Nc1ccc(Oc2ccc(C3(c4ccc(Oc5ccc(NC(=O)c6ccc7c(c6)C(=O)N(c6ccc(Oc8ccc(Oc9ccc(N%10C(=O)c%11ccc(*)cc%11C%10=O)cc9)c(C)c8)cc6)C7=O)cc5)cc4)NC(=O)c4ccccc43)cc2)cc1` (repeat unit) belongs 293.00 °C; to `*C(=O)Nc1ccc(Oc2cccc(Oc3ccc(NC(=O)c4ccc5c(c4)C(=O)N(c4ccc(Oc6cccc(Oc7ccc(N8C(=O)c9ccc(*)cc9C8=O)cc7)c6C#N)cc4)C5=O)cc3)c2)cc1` (repeat unit), 217.00 °C. `*C(=O)Nc1cccc(Oc2cccc(Oc3cccc(Oc4cccc(Oc5cccc(NC(=O)c6ccc7c(c6)C(=O)N(c6ccc(Oc8cccc(Oc9ccc(N%10C(=O)c%11ccc(*)cc%11C%10=O)cc9)c8C#N)cc6)C7=O)c5)c4C#N)c3)c2C#N)c1` (repeat unit): the glass transition temperature came out at 199.00 °C. `*C(=O)Oc1ccc(OCCCCCCCCCCCCOc2ccc(OC(=O)c3ccc4c(c3)C(=O)N(c3ccc(S(=O)(=O)c5ccc(N6C(=O)c7ccc(*)cc7C6=O)cc5)cc3)C4=O)cc2)cc1` (repeat unit) showed a glass transition temperature of 140.00 °C. For `*C(=O)c1ccc2c(c1)C(=O)N(c1ccc(Oc3cc(C(C)(C)C)c(Oc4ccc(N5C(=O)c6ccc(*)cc6C5=O)cc4)cc3C(C)(C)C)cc1)C2=O` (repeat unit) the value was 288.00 °C; for `*C(=O)c1ccc2c(c1)C(=O)N(c1ccc(Oc3cccc(Oc4ccc(N5C(=O)c6ccc(*)cc6C5=O)cc4)c3C#N)cc1)C2=O` (repeat unit), 245.00 °C; for `*CCCOCCCCOCCCN1C(=O)c2ccc(C(=O)Oc3ccc(OC(=O)c4ccc5c(c4)C(=O)N(*)C5=O)cc3)cc2C1=O` (repeat unit), 56.00 °C.

As for `*COC(=O)c1ccc(/C(C#N)=C(\c2ccc(OC)cc2)N2CCCC(*)C2)cc1` (repeat unit), the glass transition temperature was determined as 176.00 °C. To `*OP(=O)(Oc1ccc(*)cc1)OC1CCCCC1` (repeat unit) belongs 108.00 °C; to `*OP(=O)(Oc1ccc(C)cc1)Oc1ccc(S(=O)(=O)c2ccc(*)cc2)cc1` (repeat unit), 66.00 °C. To `*O[Si](C)(C)Oc1ccc(*)cc1` (repeat unit) belongs 90.00 °C. For `*Oc1ccc(-c2ccc(Oc3ccc(*)cc3)c3ccccc23)c2ccccc12` (repeat unit) the value was 226.00 °C.

For `*Oc1ccc(C(=O)c2ccc(Oc3ccc4c(=O)n5c6cc(-c7ccc8c(c7)nc7c9ccc(*)c%10cccc(c(=O)n87)c%109)ccc6nc5c5cccc3c45)cc2)cc1` (repeat unit), the glass transition temperature came out at 389.00 °C.

As to `*Oc1ccc(C(c2ccc(Oc3ccc(C(=O)c4ccc(P(=O)(c5ccccc5)c5ccc(C(=O)c6ccc(*)cc6)cc5)cc4)cc3)cc2)(C(F)(F)F)C(F)(F)F)cc1` (repeat unit), the glass transition temperature was 207.00 °C. For `*Oc1ccc(OC(=O)Oc2ccc(C(*)=O)cc2)cc1` (repeat unit) the value was 74.00 °C. For `*Oc1ccc(OC(=O)c2cc(OCCCCCCCCCOCC3CCCN3c3ccc([N+](=O)[O-])cc3)c(C(*)=O)cc2OCCCCCCCCCOCC2CCCN2c2ccc([N+](=O)[O-])cc2)cc1` (repeat unit) the value was 34.00 °C; for `*Oc1ccc(OC(=O)c2cc(OCCCCCCCCOCC3CCCN3c3ccc([N+](=O)[O-])cc3)c(C(*)=O)cc2OCCCCCCCCOCC2CCCN2c2ccc([N+](=O)[O-])cc2)cc1` (repeat unit), 41.00 °C.

As for `*Oc1ccc(OC(=O)c2cc(OCCCCCCCOCC3CCCN3c3ccc([N+](=O)[O-])cc3)c(C(*)=O)cc2OCCCCCCCOCC2CCCN2c2ccc([N+](=O)[O-])cc2)cc1` (repeat unit), the glass transition temperature was 50.00 °C. To `*Oc1ccc(OC(=O)c2ccc(C(*)=O)cc2)cc1` (repeat unit) belongs 267.00 °C; to `*Oc1ccc(OC(=O)c2ccc(C(*)=O)cc2)cc1C1CCCCC1` (repeat unit), 206.00 °C. To `*Oc1ccc(OC(=O)c2ccc(C(*)=O)cc2Oc2ccc(C3CCCCC3)cc2)cc1` (repeat unit) belongs 113.00 °C; to `*Oc1ccc(OC(=O)c2ccc(C(*)=O)cc2Oc2ccc(F)cc2)cc1` (repeat unit), 106.00 °C. `*Oc1ccc(OC(=O)c2ccc(OC(=O)c3ccc(C(=O)Oc4ccc(C(*)=O)cc4)cc3)cc2)cc1` (repeat unit): the glass transition temperature came to 283.00 °C.

Consider `*Oc1ccc(OC(=O)c2ccc(OCCCCCCCCCCCCOc3ccc(C(*)=O)cc3)cc2)cc1/C=C/c1ccncc1` (repeat unit), for which the glass transition temperature amounted to 94.30 °C. Consider `*Oc1ccc(OC(=O)c2ccc(OCCCCCCCCCCOc3ccc(C(*)=O)cc3)cc2)cc1S(=O)(=O)c1ccccc1` (repeat unit), for which the glass transition temperature was 88.00 °C.

Molecule `*Oc1ccc(OC(=O)c2ccc(Oc3ccc(C(*)=O)cc3)cc2)c2ccccc12` (repeat unit) showed a glass transition temperature of 166.00 °C.

In turn, `*Oc1ccc(OC2(F)C(*)(F)C(F)(F)C2(F)F)cc1` (repeat unit) showed a glass transition temperature of 41.00 °C. For `*Oc1ccc(Oc2ccc(/C=N/CC/N=C/c3ccc(*)cc3)cc2)cc1` (repeat unit) the value was 101.00 °C; for `*Oc1ccc(Oc2ccc(/C=N/c3ccc(Oc4ccc(/N=C/c5ccc(*)cc5)cc4)cc3)cc2)cc1` (repeat unit), 120.00 °C; for `*Oc1ccc(Oc2ccc(C(=O)c3ccc(P(=O)(c4ccccc4)c4ccc(C(=O)c5ccc(*)cc5)cc4)cc3)cc2)cc1` (repeat unit), 207.00 °C.

`*Oc1ccc(Oc2ccc(C(=O)c3ccccc3)c(-c3cc(*)ccc3C(=O)c3ccccc3)c2)cc1` (repeat unit): the glass transition temperature is 156.00 °C. To `*Oc1ccc(Oc2ccc(NC(=O)c3ccc(Oc4ccc(Oc5ccc(C(=O)Nc6ccc(*)cc6)cc5)cc4C)cc3)cc2)cc1C` (repeat unit) belongs 218.50 °C. For `*Oc1ccc(Oc2ccc(OC(=O)c3cccc(C(*)=O)c3)cc2)cc1` (repeat unit) the value was 164.50 °C; for `*Oc1ccc(Oc2ccc(OC(=O)c3ccccc3-c3ccccc3C(*)=O)cc2)cc1` (repeat unit), 147.00 °C. To `*Oc1ccc(Oc2ccc(Oc3cccc(C(=O)Oc4ccc(OC(=O)c5cccc(*)c5)cc4)c3)cc2)cc1` (repeat unit) belongs 101.00 °C; to `*Oc1ccc(Oc2cccc(C(=O)Oc3ccc(OC(=O)c4cccc(*)c4)cc3)c2)cc1` (repeat unit), 119.00 °C; to `*Oc1ccc(S(=O)(=O)c2ccc(OC(=O)c3ccc([Si](c4ccccc4)(c4ccccc4)c4ccc(C(*)=O)cc4)cc3)cc2)cc1` (repeat unit), 250.00 °C. For `*Oc1cccc(Oc2ccc(S(=O)(=O)c3ccc(Oc4ccc(C(=O)c5ccc(*)cc5)cc4)cc3)cc2)c1` (repeat unit), the glass transition temperature turned out to be 167.00 °C. To `*c1ccc(Cc2ccc(N3C(=O)c4ccc(Oc5ccc(Oc6ccc7c(c6)C(=O)N(*)C7=O)cc5)cc4C3=O)cc2)cc1` (repeat unit) belongs 259.00 °C; to `*c1ccc(Oc2ccc(-c3ccc(Oc4ccc(N5C(=O)c6ccc(Oc7c(C)cc(C(C)(C)c8cc(C)c(Oc9ccc%10c(c9)C(=O)N(*)C%10=O)c(C)c8)cc7C)cc6C5=O)cc4)cc3C)c(C)c2)cc1` (repeat unit), 257.00 °C. For `*c1ccc(Oc2ccc(-c3ccc(Oc4ccc(N5C(=O)c6ccc(Oc7ccc(C8(c9ccc(Oc%10ccc%11c(c%10)C(=O)N(*)C%11=O)cc9)CCC(C(C)(C)C)CC8)cc7)cc6C5=O)cc4)cc3C)c(C)c2)cc1` (repeat unit) the value was 236.00 °C; for `*c1ccc(Oc2ccc(-c3ccc(Oc4ccc(N5C(=O)c6ccc(Oc7ccc(Oc8ccc(Oc9ccc%10c(c9)C(=O)N(*)C%10=O)cc8)cc7)cc6C5=O)cc4)cc3)cc2)cc1` (repeat unit), 211.00 °C. `*c1ccc(Oc2ccc(Oc3ccc(N4C(=O)c5ccc(-c6ccc7c(c6)C(=O)N(*)C7=O)cc5C4=O)cc3)c(C(C)(C)C)c2)cc1` (repeat unit) showed a glass transition temperature of 274.00 °C. For `*c1ccc(Oc2ccc(Oc3ccc(N4C(=O)c5ccc(Oc6ccc(C7(c8ccc(Oc9ccc%10c(c9)C(=O)N(*)C%10=O)cc8)CCC(c8ccccc8)CC7)cc6)cc5C4=O)cc3)c(C(C)(C)C)c2)cc1` (repeat unit) the value was 236.00 °C. The molecule `*c1ccc(Oc2ccc3c(c2)C(=O)N(*)C3=O)cc1` (repeat unit) gave a glass transition temperature of 266.00 °C.

`*c1ccc(Oc2cccc(Oc3ccc(N4C(=O)c5ccc(Oc6ccc(Oc7ccc(Oc8ccc9c(c8)C(=O)N(*)C9=O)cc7)cc6)cc5C4=O)cc3)c2)cc1` (repeat unit): the glass transition temperature is 184.00 °C. For `*c1ccc(Oc2cccc(Oc3ccc(N4C(=O)c5ccc(Oc6ccc(Oc7ccc8c(c7)C(=O)N(*)C8=O)cc6)cc5C4=O)cc3)c2)cc1` (repeat unit) the value was 199.00 °C. For `*c1ccc(Oc2cccc(Oc3ccc(N4C(=O)c5cccc(Oc6ccc(Oc7cccc8c7C(=O)N(*)C8=O)cc6)c5C4=O)cc3)c2)cc1` (repeat unit), the glass transition temperature worked out at 214.00 °C. For `*c1ccc(S(=O)(=O)c2ccc(N3C(=O)c4ccc(Oc5ccc(Oc6ccc7c(c6)C(=O)N(*)C7=O)cc5)cc4C3=O)cc2)cc1` (repeat unit) the value was 283.00 °C; for `*c1ccc2c(c1)C(=O)N(c1ccc(Oc3cccc(Oc4ccc(N5C(=O)c6ccc(C(*)(C(F)(F)F)C(F)(F)F)cc6C5=O)cc4)c3C#N)cc1)C2=O` (repeat unit), 280.00 °C; for `*c1cccc(N2C(=O)c3ccc(Oc4ccc(C(=O)c5ccc(Oc6ccc7c(c6)C(=O)N(*)C7=O)cc5)cc4)cc3C2=O)c1` (repeat unit), 239.00 °C. As to `*c1cccc(N2C(=O)c3cccc(Oc4ccc(Oc5cccc6c5C(=O)N(*)C6=O)cc4)c3C2=O)c1` (repeat unit), the glass transition temperature came to 259.00 °C.
